Measured values: article PMC4619705 (PLoS ONE, 2015)
Where “and” joins values, the source holds several entries; their conditions need not be identical. Equal values may be shown once. Entries after “also recorded” stand apart in the source; their conditions may differ. Values belong to the molecule of their own block, whether it stands above or below them.

Assays:
Assay type in all cases: cell-based
homomeric α2 GABAARs = molecular target: T1, homomeric α2 GABAARs (Homo sapiens, UniProt P47869); experiment: Two-electrode voltage clamp of oocytes injected with α2 mRNA alone
T1 construct: expressed in transfected cells; host or cells: Xenopus laevis oocytes injected with α2 mRNA alone (28–35 ng/oocyte)
T1 sequence (P47869 29-451): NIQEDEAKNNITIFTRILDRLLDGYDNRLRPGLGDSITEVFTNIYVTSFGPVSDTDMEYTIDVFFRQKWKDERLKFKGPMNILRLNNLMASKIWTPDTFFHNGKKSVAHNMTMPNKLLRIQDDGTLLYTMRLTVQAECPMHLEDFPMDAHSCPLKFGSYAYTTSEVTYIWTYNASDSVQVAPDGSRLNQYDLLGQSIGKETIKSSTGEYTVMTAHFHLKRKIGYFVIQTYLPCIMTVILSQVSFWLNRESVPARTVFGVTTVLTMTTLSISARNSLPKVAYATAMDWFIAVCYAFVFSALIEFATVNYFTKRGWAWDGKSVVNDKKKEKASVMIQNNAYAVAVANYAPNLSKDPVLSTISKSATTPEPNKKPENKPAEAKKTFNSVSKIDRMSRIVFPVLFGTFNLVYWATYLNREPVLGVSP
Text: (§1) Human complementary DNA (cDNA) of GABAAR α2 subunit (vector: pCMV6-XL5) was purchased from OriGene Technologies (Rockville, MD, USA), and the human β3 (vector: pGEMHE) and γ2L (vector: pCDM8) subunits were generous gifts from Dr. Bjarke Ebert (H. Lundbeck A/S, Valby, Denmark) and Dr. Paul Whiting (Merck, Sharp and Dohme Research Laboratories, Harlow, Essex, UK) respectively. […] Plasmid vectors with the cDNA incorporated were linearised using appropriate restriction endonucleases (α2: SmaI; β3: NheI; γ2L: NotI). Capped RNA transcripts were synthesised from linearised plasmids using the mMessage mMachine T7 transcript kit from Ambion (Austin, TX, USA). Purified messenger RNA (mRNA) was dissolved in nuclease-free water (Ambion, Austin, TX, USA), and its quality was assessed using 1% agarose gel electrophoresis. The concentration of each subunit mRNA was measured using Nanodrop ND-100 UV-Vis spectrophotometer (Thermo Fisher Scientific, North Ryde, NSW, Australia).
Various combinations of α2, β3 and γ2L subunit mRNAs were mixed to different ratios as stated in the text, and diluted accordingly to a concentration of 5 ng/μL (unless otherwise stated). […] Injected oocytes were stored in ND96 storage solution supplemented with 50 μg/mL gentamycin and tetracycline at 18°C. […]

γ2L homomeric receptors = molecular target: T2, γ2L homomeric receptors (Homo sapiens, UniProt P18507); experiment: Two-electrode voltage clamp of γ2L homomeric receptors expressed in Xenopus oocytes; settings: γ2L alone
T2 construct: expressed in transfected cells; host or cells: Xenopus laevis oocytes injected with γ2L mRNA alone (high amounts)
Text: as §1
(§2) Various combinations of α2, β3 and γ2L subunit mRNAs were mixed to different ratios as stated in the text, and diluted accordingly to a concentration of 5 ng/μL (unless otherwise stated). […] Injected oocytes were stored in ND96 storage solution supplemented with 50 μg/mL gentamycin and tetracycline at 18°C. Two-electrode voltage clamp recordings were performed on oocytes 2–4 days post-injection at room temperature (20–25°C) using a GeneClamp 500B amplifier (ADInstruments, Sydney, NSW, Australia) or a Warner OC-725C Oocyte Clamp (Warner Instrument Corp, Hamden, CT, USA). All experiments were conducted at a holding potential of –60 mV, and data were acquired with a PowerLab 2/25, and LabChart (version 5.0.2) software (ADInstruments, Sydney, NSW, Australia). The recording microelectrodes (0.2–1.1 MΩ) were generated from capillary glass (Harvard Apparatus, Holliston, MA, USA) using a single-stage glass microelectrode puller (Narishige, Tokyo, Japan), and were filled with 3 M KCl solution. The perfusion system was built using a series of polycarbonate, high-density polyethylene two-way stopcocks (Qosina, Edgewood, NY, USA), connected through tubing to the recording chamber (100 μL), where the oocyte was continuously perfused with ND96 recording solution (96 mM NaCl, 2 mM KCl, 1 mM MgCl2, 1.8 mM CaCl2, 5 mM HEPES hemisodium; pH 7.4) at an approximate rate of 5 mL/min.
(§3) Perfusates containing these chemicals were made up fresh before each application. The concentration-response curves of agonists were obtained by exposing oocytes to increasing concentrations of agonists until the currents peaked. […] All experiments were performed using at least two different batches of oocytes.

β3γ2L GABAARs = molecular target: T3, β3γ2L GABAARs (Homo sapiens, UniProt P18507+P28472); experiment: Two-electrode voltage clamp of β3γ2L GABAARs expressed at various β3:γ2L mRNA ratios in Xenopus oocytes; settings: for EC50: EC50 (95% CI) of direct activation; for EC50 / E max ± SEM (300 μM 2’MeO6MF-elicited current normalised against 3 mM GABA response) / n H ± SEM (Hill slope) of direct activation: -60 mV; for 2’MeO6MF activity: 100 μM; for Enhancement of GABA current (co-application): GABA EC3–10 + 100 or 300 μM ligand, data not shown; for Expression level (current response elicited by GABA): 3 mM GABA; for Frac (95% CI), proportion of maximal response mediated by the more potent component / n H_1 (Hill slope) / n H_2 (Hill slope): biphasic fit; for n H_1 (Hill slope) / n H_2 (Hill slope): Hill slopes constrained to 1
T3 construct: expressed in transfected cells; host or cells: Xenopus laevis oocytes injected with β3 and γ2L mRNAs at 1:1 to 1:100
Text: as §1
as §2, with “All experiments were conducted at a holding potential of –60 mV, and data were acquired with a PowerLab 2/25, and LabChart (version 5.0.2) software (ADInstruments, Sydney, NSW, Australia).” left out
as §3
Prism (version 5.04; GraphPad Software, La Jolla, CA, USA) was used for data analysis.
In all cases, we constrained the bottom to 0, and when fitting data to the biphasic model, the Hill slopes were constrained to 1. Statistical comparisons of results for different injection ratios of β3γ2L receptors were performed using ANOVA with Tukey’s post-hoc test. When comparing results from different injection ratios of β3γ2L receptors with α2β3γ2L receptors, the ANOVA Dunnett’s test was used. Pairwise comparisons were performed using Student’s t test. Statistical significance was attained at p < 0.05.

T2 sequence (P18507 40-475): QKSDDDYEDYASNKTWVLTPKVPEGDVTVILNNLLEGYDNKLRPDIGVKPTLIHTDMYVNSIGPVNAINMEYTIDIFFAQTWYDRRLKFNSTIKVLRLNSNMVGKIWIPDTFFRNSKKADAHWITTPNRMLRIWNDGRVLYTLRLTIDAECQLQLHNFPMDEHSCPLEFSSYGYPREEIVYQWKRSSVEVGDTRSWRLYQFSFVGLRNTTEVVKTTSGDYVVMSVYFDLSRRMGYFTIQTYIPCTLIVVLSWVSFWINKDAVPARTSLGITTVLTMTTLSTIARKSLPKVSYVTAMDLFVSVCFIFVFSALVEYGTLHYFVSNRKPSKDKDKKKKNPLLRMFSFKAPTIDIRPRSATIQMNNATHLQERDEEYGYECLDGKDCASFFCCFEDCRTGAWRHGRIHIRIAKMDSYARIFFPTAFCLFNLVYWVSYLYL
T3 sequence (P28472 26-473): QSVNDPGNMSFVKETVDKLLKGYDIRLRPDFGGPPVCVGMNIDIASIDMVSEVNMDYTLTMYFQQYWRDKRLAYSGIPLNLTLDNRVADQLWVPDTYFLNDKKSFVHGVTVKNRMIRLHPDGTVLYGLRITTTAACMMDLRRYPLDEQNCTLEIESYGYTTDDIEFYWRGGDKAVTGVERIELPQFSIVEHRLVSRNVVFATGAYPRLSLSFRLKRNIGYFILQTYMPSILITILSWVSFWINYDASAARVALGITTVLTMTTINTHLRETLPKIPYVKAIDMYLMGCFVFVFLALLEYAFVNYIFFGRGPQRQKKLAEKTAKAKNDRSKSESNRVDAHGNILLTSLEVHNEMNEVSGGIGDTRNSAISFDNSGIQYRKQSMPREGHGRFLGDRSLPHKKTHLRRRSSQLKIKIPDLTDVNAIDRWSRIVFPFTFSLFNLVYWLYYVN
T3 sequence (P18507 40-475): as the sequence (P18507 40-475) above

SMILES: COc1ccccc1-c1cc(=O)c2cc(C)ccc2o1 [2’MeO6MF, 2’-methoxy-6-methylflavone]
2’MeO6MF activity (homomeric α2 GABAARs; 100 μM): did not detect function; also recorded: No current
2’MeO6MF activity (γ2L homomeric receptors; 100 μM): not sensitive; also recorded: not responsive; also recorded: No current
EC50 (β3γ2L GABAARs; β3γ2L 1:15): 45 µM
EC50 (β3γ2L GABAARs; β3γ2L 1:50): 62 µM
EC50 (β3γ2L GABAARs; β3γ2L 1:100): 63 µM
2’MeO6MF activity (β3γ2L GABAARs; β3γ2L 1:1): inhibited the constitutive activity; also recorded: inverse agonist; also recorded: Inverse agonism
2’MeO6MF activity (β3γ2L GABAARs; β3γ2L 1:5): mixed agonist and inverse agonist activity; also recorded: mixed inverse agonist and agonist effect; also recorded: Inverse agonism/activation
2’MeO6MF activity (β3γ2L GABAARs; β3γ2L 1:10): mixed agonist and inverse agonist activity; also recorded: mixed inverse agonist and agonist effect; also recorded: Inverse agonism/activation
2’MeO6MF activity (β3γ2L GABAARs; β3γ2L 1:15): directly activated receptors expressed efficaciously; also recorded: Activation
Elicited current, % of the 3 mM GABA responses (mean ± SEM) (β3γ2L GABAARs; β3γ2L 1:15, 100 μM ligand): 87 ± 4.5%
E max ± SEM (300 μM 2’MeO6MF-elicited current normalised against 3 mM GABA response) (β3γ2L GABAARs; β3γ2L 1:15): 1.2 ± 0.10
n H ± SEM (Hill slope) of direct activation (β3γ2L GABAARs; β3γ2L 1:15): 1.8 ± 0.42
Enhancement of GABA current (co-application) (β3γ2L GABAARs; β3γ2L 1:15): No enhancement
2’MeO6MF activity (β3γ2L GABAARs; β3γ2L 1:20): variable efficacy; also recorded: Activation
Elicited current, % of the 3 mM GABA responses (mean ± SEM) (β3γ2L GABAARs; β3γ2L 1:20, 100 μM ligand): approximately 34 ± 4.0%
Relative efficacy, range across oocytes, % of the 3 mM GABA responses (β3γ2L GABAARs; β3γ2L 1:20, 100 μM ligand): 1.0 to 120%
2’MeO6MF activity (β3γ2L GABAARs; β3γ2L 1:50): activation with low efficacy
Elicited current, % of the 3 mM GABA responses (mean ± SEM) (β3γ2L GABAARs; β3γ2L 1:50, 100 μM ligand): around 6.7 ± 1.2%
E max ± SEM (300 μM 2’MeO6MF-elicited current normalised against 3 mM GABA response) (β3γ2L GABAARs; β3γ2L 1:50): 0.086 ± 0.018
n H ± SEM (Hill slope) of direct activation (β3γ2L GABAARs; β3γ2L 1:50): 1.4 ± 0.88
2’MeO6MF activity (β3γ2L GABAARs; β3γ2L 1:100): activation with low efficacy
Elicited current, % of the 3 mM GABA responses (mean ± SEM) (β3γ2L GABAARs; β3γ2L 1:100, 100 μM ligand): ~5.1 ± 0.72%
E max ± SEM (300 μM 2’MeO6MF-elicited current normalised against 3 mM GABA response) (β3γ2L GABAARs; β3γ2L 1:100): 0.10 ± 0.020
n H ± SEM (Hill slope) of direct activation (β3γ2L GABAARs; β3γ2L 1:100): 1.6 ± 0.76
Enhancement of GABA current (co-application) (β3γ2L GABAARs; β3γ2L 1:100): No enhancement

Expression level (current response elicited by GABA) (β3γ2L GABAARs; β3γ2L 1:1): 110 ± 34 nA
Expression level (current response elicited by GABA) (β3γ2L GABAARs; β3γ2L 1:5): 270 ± 80 nA
Expression level (current response elicited by GABA) (β3γ2L GABAARs; β3γ2L 1:10): 310 ± 61 nA
I max ± SEM (current amplitude elicited by 30 mM GABA) (β3γ2L GABAARs; β3γ2L 1:15): 780 ± 220 nA
Expression level (current response elicited by GABA) (β3γ2L GABAARs; β3γ2L 1:15): 490 ± 47 nA
n H_1 ± SEM (Hill slope) (β3γ2L GABAARs; β3γ2L 1:15, monophasic fit): 0.54 and 0.54 ± 0.040
Expression level (current response elicited by GABA) (β3γ2L GABAARs; β3γ2L 1:20): 860 ± 87 nA
I max ± SEM (current amplitude elicited by 30 mM GABA) (β3γ2L GABAARs; β3γ2L 1:50): 1000 ± 250 nA
Expression level (current response elicited by GABA) (β3γ2L GABAARs; β3γ2L 1:50): 1000 ± 160 nA
Frac (95% CI), proportion of maximal response mediated by the more potent component (β3γ2L GABAARs; β3γ2L 1:50): 0.74 (0.67–0.80)
n H_1 (Hill slope) (β3γ2L GABAARs; β3γ2L 1:50): 1.0
n H_2 (Hill slope) (β3γ2L GABAARs; β3γ2L 1:50): 1.0
I max ± SEM (current amplitude elicited by 30 mM GABA) (β3γ2L GABAARs; β3γ2L 1:100): 1000 ± 97 nA
Expression level (current response elicited by GABA) (β3γ2L GABAARs; β3γ2L 1:100): 1100 ± 100 nA
Frac (95% CI), proportion of maximal response mediated by the more potent component (β3γ2L GABAARs; β3γ2L 1:100): 0.71 (0.65–0.77)
n H_1 (Hill slope) (β3γ2L GABAARs; β3γ2L 1:100): 1.0
n H_2 (Hill slope) (β3γ2L GABAARs; β3γ2L 1:100): 1.0
SMILES: NCCCC(=O)O [GABA, γ-aminobutyric acid]
Expression level (current response elicited by GABA) (homomeric α2 GABAARs; 28–35 ng mRNA/oocyte, 60 mM GABA, -60 mV): did not detect function; also recorded: No current
Expression level (current response elicited by GABA) (γ2L homomeric receptors; 20–35 ng mRNA/oocyte, 60 mM GABA, -60 mV): not sensitive; also recorded: not responsive; also recorded: No current
